From ChEMBL document CHEMBL6074659, “Development of an Intravenously Stable Disulfide-Rich Peptide for the Treatment of Chemotherapy-Induced Neuropathic Pain” (J Med Chem, 2024)
Calls of active or inactive are those of the source. No cut-off for these calls is given here. Residues, ends and D or L forms follow the SMILES beside them.

How the values were obtained:
Rattus norvegicus [1] = test: Analgesic activity in Oxaliplatin-induced cold allodynia SPF male Sprague-Dawley rat assessed as reduction in pain-relieving effect at 500 microg/kg, iv measured at 1 to 24 hrs; type: functional, organism-based; conditions: dose 500.0 µg/kg, time 1-24 hrs
[2] = molecular target: Neuronal acetylcholine receptor subunit alpha-7 (Homo sapiens, UniProt P36544); test: Inhibition of human alpha7 nAChR assessed as reduction in acetylcholine-induced current incubated for 5 mins by two electrode voltage-clamp assay
[3] = molecular target: T1, Neuronal acetylcholine receptor; alpha9/alpha10 (Homo sapiens, UniProt Q9GZZ6+Q9UGM1); test: Antagonist activity at human alpha9alpha10 nAChR expressed in acetylcholine-induced Xenopus laevis oocytes assessed as inhibition of acetylcholine-induced current at -80 mV holding potential incubated for 5 mins by two electrode voltage-clamp assay; type: cell-based, Oocyte
[4] = Stability in human serum assessed as half life incubated upto 48 hrs by RP-HPLC analysis; type: ADME, cell-free
[5] = Stability in human serum assessed as parent compound remaining incubated at 24 hrs by RP-HPLC analysis; type: ADME, cell-free; conditions: for remaining at 24 h: human serum, read-out: Stability
Rattus norvegicus [6] = test: Analgesic activity in Oxaliplatin-induced cold allodynia SPF male Sprague-Dawley rat assessed as increase in latency at 200 microg/kg, iv measured at 72 hrs by cold plate test; type: functional, organism-based; conditions: dose 200.0 µg/kg
[7] = molecular target: Neuronal acetylcholine receptor; alpha3/beta2 (Homo sapiens, UniProt P17787+P32297); test: Inhibition of human alpha3beta2 nAChR assessed as reduction in acetylcholine-induced current incubated for 5 mins by two electrode voltage-clamp assay; type: protein-complex assay
[8] = molecular target: T1, Neuronal acetylcholine receptor; alpha9/alpha10; test: Inhibition of human alpha9alpha10 nAChR assessed as reduction in acetylcholine-induced current incubated for 5 mins by two electrode voltage-clamp assay; type: protein-complex assay
[9] = molecular target: Neuronal acetylcholine receptor; alpha9/alpha10 (Homo sapiens) (UniProt Q9UGM1+Q9GZZ6); test: Antagonist activity at human alpha9alpha10 nAChR expressed in acetylcholine-induced Xenopus laevis oocytes assessed as inhibition of acetylcholine-induced current at 10 nM at -80 mV holding potential incubated for 5 mins by two electrode voltage-clamp assay relative to control; type: cell-based; conditions: Oocyte, filed as antagonist
[10] = Stability in human serum assessed as parent compound remaining incubated at 48 hrs by RP-HPLC analysis; type: ADME, cell-free; conditions: read-out: Stability
Rattus norvegicus [11] = test: Analgesic activity in Oxaliplatin-induced cold allodynia SPF male Sprague-Dawley rat assessed as reduction in pain-relieving effect at 500 microg/kg, iv measured at 24 to 48 hrs; type: functional, organism-based; conditions: dose 500.0 µg/kg, time 24-48 hrs
[12] = molecular target: T2, Neuronal acetylcholine receptor; alpha4/beta4 (Homo sapiens) (UniProt P30926+P43681); test: Inhibition of human alpha4beta4 nAChR assessed as reduction in acetylcholine-induced current at 100 nM incubated for 5 mins by two electrode voltage-clamp assay relative to control; type: protein-complex assay
Rattus norvegicus [13] = test: Analgesic activity in Oxaliplatin-induced cold allodynia SPF male Sprague-Dawley rat assessed as reduction in pain-relieving effect by measuring acetone response score at 200 microg/kg, iv measured at 48 hrs; type: functional, organism-based; conditions: dose 200.0 µg/kg
Rattus norvegicus [14] = test: Analgesic activity in Oxaliplatin-induced cold allodynia SPF male Sprague-Dawley rat assessed as latency time at 500 microg/kg, iv measured at 48 hrs by cold plate test; type: functional; conditions: dose 500 µg/kg
Homo sapiens [15] = species on record: Homo sapiens; test: Inhibition of human alpha1beta1deltagamma nAChR assessed as reduction in acetylcholine-induced current at 10 to 100 nM incubated for 5 mins by two electrode voltage-clamp assay relative to control; conditions: dose 10-100 nM
[16] = molecular target: T2, Neuronal acetylcholine receptor; alpha4/beta4 (Homo sapiens); test: Inhibition of human alpha4beta4 nAChR assessed as reduction in acetylcholine-induced current at 10 to 100 nM incubated for 5 mins by two electrode voltage-clamp assay relative to control; type: protein-complex assay; conditions: dose 10-100 nM
Homo sapiens [17] = species on record: Homo sapiens; test: Inhibition of human alpha1beta1epsilondelta nAChR assessed as reduction in acetylcholine-induced current at 10 to 100 nM incubated for 5 mins by two electrode voltage-clamp assay relative to control; conditions: dose 10-100 nM
[18] = Stability in human serum assessed as half life incubated upto 192 hrs by RP-HPLC analysis; type: ADME, cell-free
Rattus norvegicus [19] = test: Analgesic activity in Oxaliplatin-induced cold allodynia SPF male Sprague-Dawley rat assessed as reduction in pain-relieving effect by measuring acetone response score at 50 microg/kg, iv measured at 48 hrs; type: functional, organism-based; conditions: dose 50.0 µg/kg
Rattus norvegicus [20] = test: Analgesic activity in Oxaliplatin-induced cold allodynia SPF male Sprague-Dawley rat assessed as increase in latency at 500 microg/kg, iv measured at 72 hrs by cold plate test; type: functional, organism-based; conditions: dose 500.0 µg/kg
Rattus norvegicus [21] = test: Analgesic activity in Oxaliplatin-induced cold allodynia iv dosed SPF male Sprague-Dawley rat assessed as reduction in pain-relieving effect measured at 72 hrs; type: functional, organism-based; conditions: dose 500.0 µg/kg
[22] = molecular target: Neuronal acetylcholine receptor; alpha3/beta4 (Homo sapiens) (UniProt P30926+P32297); test: Inhibition of human alpha3beta4 nAChR assessed as reduction in acetylcholine-induced current at 10 to 100 nM incubated for 5 mins by two electrode voltage-clamp assay relative to control; type: protein-complex assay; conditions: dose 10-100 nM
[23] = molecular target: T2, Neuronal acetylcholine receptor; alpha4/beta4 (Homo sapiens); test: Inhibition of human alpha4beta4 nAChR assessed as reduction in acetylcholine-induced current at 10 nM incubated for 5 mins by two electrode voltage-clamp assay; type: protein-complex assay

T1 sequence (Q9UGM1 whole entry): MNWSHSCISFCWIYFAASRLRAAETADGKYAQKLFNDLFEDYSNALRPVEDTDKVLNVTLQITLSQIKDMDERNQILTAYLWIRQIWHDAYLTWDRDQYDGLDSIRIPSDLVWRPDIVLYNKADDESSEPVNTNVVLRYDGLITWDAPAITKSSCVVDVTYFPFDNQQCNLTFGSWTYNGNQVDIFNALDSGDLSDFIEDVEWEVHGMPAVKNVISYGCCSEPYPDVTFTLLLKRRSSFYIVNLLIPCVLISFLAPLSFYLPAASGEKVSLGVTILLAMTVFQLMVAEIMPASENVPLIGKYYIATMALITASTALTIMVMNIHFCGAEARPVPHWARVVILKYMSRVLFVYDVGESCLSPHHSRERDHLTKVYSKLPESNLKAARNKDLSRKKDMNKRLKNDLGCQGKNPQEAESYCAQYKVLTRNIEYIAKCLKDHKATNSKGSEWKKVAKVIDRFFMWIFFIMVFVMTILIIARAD
T1 sequence (Q9GZZ6 whole entry): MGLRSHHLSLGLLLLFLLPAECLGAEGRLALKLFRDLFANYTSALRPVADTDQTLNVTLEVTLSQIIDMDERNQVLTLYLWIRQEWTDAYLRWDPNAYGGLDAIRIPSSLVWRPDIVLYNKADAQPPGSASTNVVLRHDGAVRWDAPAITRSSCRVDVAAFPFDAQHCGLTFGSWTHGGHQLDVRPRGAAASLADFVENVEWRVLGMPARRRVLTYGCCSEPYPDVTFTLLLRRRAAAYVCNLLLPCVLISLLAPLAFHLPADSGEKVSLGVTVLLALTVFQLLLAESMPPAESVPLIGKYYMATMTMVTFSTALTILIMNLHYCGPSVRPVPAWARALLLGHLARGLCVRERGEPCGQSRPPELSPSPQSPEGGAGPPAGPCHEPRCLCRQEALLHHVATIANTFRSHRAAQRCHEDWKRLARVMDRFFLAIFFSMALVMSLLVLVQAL
Neuronal acetylcholine receptor; alpha3/beta2, sequence (P17787 whole entry): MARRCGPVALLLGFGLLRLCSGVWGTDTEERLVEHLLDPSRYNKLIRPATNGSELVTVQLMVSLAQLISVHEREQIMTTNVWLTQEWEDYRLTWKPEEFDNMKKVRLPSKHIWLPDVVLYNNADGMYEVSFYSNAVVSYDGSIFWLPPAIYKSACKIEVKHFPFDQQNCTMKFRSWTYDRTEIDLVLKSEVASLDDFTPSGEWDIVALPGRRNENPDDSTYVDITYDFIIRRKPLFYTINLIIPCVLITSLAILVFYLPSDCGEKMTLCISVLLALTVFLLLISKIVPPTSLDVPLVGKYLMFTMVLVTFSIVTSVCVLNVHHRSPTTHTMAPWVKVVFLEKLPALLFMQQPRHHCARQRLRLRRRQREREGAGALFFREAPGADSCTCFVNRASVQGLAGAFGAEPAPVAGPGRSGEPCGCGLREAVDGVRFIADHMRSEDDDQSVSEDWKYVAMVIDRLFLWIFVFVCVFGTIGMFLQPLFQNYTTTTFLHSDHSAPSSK
Neuronal acetylcholine receptor; alpha3/beta2, sequence (P32297 whole entry): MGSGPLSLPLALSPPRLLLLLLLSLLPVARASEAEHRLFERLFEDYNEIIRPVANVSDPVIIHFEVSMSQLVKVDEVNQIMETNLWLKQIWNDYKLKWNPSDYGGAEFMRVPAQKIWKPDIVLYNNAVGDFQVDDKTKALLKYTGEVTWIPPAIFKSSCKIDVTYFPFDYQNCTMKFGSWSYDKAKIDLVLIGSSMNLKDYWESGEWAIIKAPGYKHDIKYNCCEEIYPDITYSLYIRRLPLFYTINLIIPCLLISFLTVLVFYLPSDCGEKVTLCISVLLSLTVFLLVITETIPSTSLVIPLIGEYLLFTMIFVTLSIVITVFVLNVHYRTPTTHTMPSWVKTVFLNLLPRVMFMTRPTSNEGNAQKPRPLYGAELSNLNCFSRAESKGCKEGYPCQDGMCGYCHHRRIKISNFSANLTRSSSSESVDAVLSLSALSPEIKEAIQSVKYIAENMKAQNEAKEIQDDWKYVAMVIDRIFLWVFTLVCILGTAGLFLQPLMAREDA
Neuronal acetylcholine receptor subunit alpha-7, sequence (P36544 whole entry): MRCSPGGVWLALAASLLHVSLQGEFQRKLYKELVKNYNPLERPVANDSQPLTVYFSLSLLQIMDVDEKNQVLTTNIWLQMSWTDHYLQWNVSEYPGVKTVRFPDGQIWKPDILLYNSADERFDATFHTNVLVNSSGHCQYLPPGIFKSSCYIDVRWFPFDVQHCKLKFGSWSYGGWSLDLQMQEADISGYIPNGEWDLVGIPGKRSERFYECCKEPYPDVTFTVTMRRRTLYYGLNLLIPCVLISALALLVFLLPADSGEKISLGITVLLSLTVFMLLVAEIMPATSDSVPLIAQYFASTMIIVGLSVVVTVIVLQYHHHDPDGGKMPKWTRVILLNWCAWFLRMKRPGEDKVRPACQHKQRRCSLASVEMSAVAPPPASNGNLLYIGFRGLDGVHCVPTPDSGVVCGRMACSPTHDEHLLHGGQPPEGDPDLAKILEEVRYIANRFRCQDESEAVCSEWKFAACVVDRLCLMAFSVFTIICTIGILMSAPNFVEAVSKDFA

With `CC[C@H](C)[C@H](NC(=O)[C@H](CC(=O)O)NC(=O)[C@@H]1CCCN1C(=O)[C@H](CC(N)=O)NC(=O)[C@H](CC(N)=O)NC(=O)[C@@H](NC(=O)[C@H](CO)NC(=O)[C@H](CS)NC(=O)[C@H](C)NC(=O)[C@@H]1CCCN1C(=O)[C@H](Cc1cnc[nH]1)NC(=O)[C@H](CN)NC(=O)[C@H](CS)NC(=O)[C@H](CS)NC(=O)CN)C(C)C)C(=O)N[C@@H](CS)C(N)=O` (HELM PEPTIDE1{G.C.C.[NC[C@H](N[*:1])C(=O)[*:2]].H.P.A.C.S.V.N.N.P.D.I.C.[am]}$$$$V2.0) the Activity (Rattus norvegicus [1]) was “Active”, the IC50 [2] was 206 nM and the IC50 [3] was 4 nM. For the same molecule, the half-life [4] was 26.2 h, the remaining at 24 h [5] was 58.6% and the Stability ([5]; serum, 24 h) was 57.3%. For the same molecule, the Activity (Rattus norvegicus [6]) was “Active”, the IC50 [7] was 20.6 nM and the IC50 [8] was 4 nM. It also gave an inhibition [9] of 80% and a remaining at 48 h [10] of under 30%.
For `CC[C@H](C)[C@@H]1NC(=O)[C@H](CC(=O)O)NC(=O)[C@@H]2CCCN2C(=O)[C@H](CC(N)=O)NC(=O)[C@H](CC(N)=O)NC(=O)[C@H](C(C)C)NC(=O)[C@H](CO)NC(=O)[C@@H]2CSSC[C@H](NC(=O)CN)C(=O)N[C@@H](CSSC(C)(C)[C@@H](C(N)=O)NC1=O)C(=O)N[C@@H](CN)C(=O)N[C@@H](Cc1cnc[nH]1)C(=O)N1CCC[C@H]1C(=O)N[C@@H](C)C(=O)N2` (HELM PEPTIDE1{G.C.C.[NC[C@H](N[*:1])C(=O)[*:2]].H.P.A.C.S.V.N.N.P.D.I.[Pen].[am]}$PEPTIDE1,PEPTIDE1,2:R3-8:R3|PEPTIDE1,PEPTIDE1,3:R3-16:R3$$$V2.0), the Activity (Rattus norvegicus [11]) was “Active”, the IC50 [2] was 133 nM and the IC50 [3] was 4 nM. For the same molecule, the inhibition [12] was 20%, the Activity (Rattus norvegicus [13]) was “Active” and the Time (Rattus norvegicus [14]) was 140 s. The inhibition (Homo sapiens [15]) was under 1%, the remaining at 24 h [5] was 90% and the inhibition [16] was under 1%. The Activity (Rattus norvegicus [6]) was “Active”, the inhibition (Homo sapiens [17]) was under 1% and the IC50 [7] was 21.8 nM. The half-life [18] was 142 h, the Activity (Rattus norvegicus [19]) was “inactive” and the Activity (Rattus norvegicus [20]) was “Active”. The IC50 [8] was 4.1 nM, the Activity (Rattus norvegicus [21]) was “Dose-dependent-effect” and the remaining at 48 h [10] was 85%. The inhibition [22] was under 1% and the inhibition [23] was “inactive”.
